Where a SMILES comes first, the peptide text is derived from it. Bridges are numbered along the chain shown (N, C = ends).
Tested on: HaCaT cells
Assay: Tandem-mass-tag (TMT) quantitative proteomic profiling
Assay type: cell-based, human
Conditions: serum starved overnight, 10 μM tC1 for 24 h, versus untreated
Description: Tandem-mass tag quantitative proteomic profiling was performed according to the manufacturer’s instructions . Briefly, HaCaT cells treated with or without cocotide tC1 were harvested and lysed by sonication for 3 min at 25% amplitude with a 2-s-on, 3-s-off pulse time in 8 M urea and 10 mM ammonium bicarbonate supplemented with a protease inhibitor. After centrifugation, quantification of the total proteins was performed by the BCA method. A total of 100 μg of protein from each condition was subjected to in-solution digestion before labeling the resultant peptides using the TMT-10plex Isobaric Label Reagent Set (Thermo Scientific, Rockford, IL, USA) according to the manufacturer’s protocol. […] Eluate was collected in 1 min fractions and strategically pooled via concatenation based on absorbance measurements at a wavelength of 280 nm. […]
The fractionated peptides were separated and analyzed using a Dionex Ultimate 3000 RSLCnano system coupled to a Q Exactive instrument (Thermo Fisher Scientific, MA, USA). […] Peptides were then analyzed on a Q Exactive apparatus with an EASY nanospray source (Thermo Fisher Scientific) at an electrospray potential of 1.8 kV. […] Raw data files were processed, searched, and TMT 10-plex was selected as the quantification method using Peaks Studio 11 with the UniProt human proteome (Proteome ID: UP000005640) as the reference proteome. […]

CC[C@H](C)[C@@H]1NC(=O)CNC(=O)[C@H](CCSC)NC(=O)[C@@H]2CCCN2C(=O)[C@H](Cc2ccc(O)cc2)NC(=O)[C@H](CC(C)C)NC(=O)[C@@H]2CSSC[C@@H]3NC(=O)[C@H](Cc4ccccc4)NC(=O)CNC(=O)CNC(=O)[C@H](C)NC(=O)[C@H](CO)NC(=O)[C@H](CC(C)C)NC(=O)[C@@H](N)CSSC[C@@H]4NC(=O)[C@H](CSSC[C@H](NC1=O)C(=O)N[C@@H](Cc1ccc(O)cc1)C(=O)NCC(=O)N[C@@H](CO)C(=O)NCC(=O)N[C@H](C(=O)O)CSSC[C@H](NC(=O)[C@H](CC(N)=O)NC(=O)CNC4=O)C(=O)NCC(=O)N2)NC(=O)[C@H](CC(=O)O)NC(=O)[C@H](CCSC)NC(=O)[C@@H]1CCCN1C(=O)[C@H](CC(N)=O)NC(=O)[C@H](Cc1ccccc1)NC(=O)[C@H](CCSC)NC3=O [cocotide tC1] (H-CLSAGGFCMFNPMDCCGNCGCLYPMGICYGSGC-OH; disulfide 1-16, 8-21, 15-28, 19-33; N-terminus and C-terminus assumed)
number of downregulated proteins (minimum 2-fold, significance value >15): 3 proteins
number of upregulated proteins (minimum 2-fold, significance value >15): 19 proteins

Source: paper PMC12311725, “Identification of Ginsentide-like Peptides from Cacao Beans with Oxidative Stress Protection” (ACS Omega, 2025)
